According to publication PMC8018465, “Antimicrobial activities of a small molecule compound II-6s against oral streptococci” (Journal of Oral Microbiology, 2021):
In brackets after ≈: the same amount, converted by molar mass. Like-named read-outs stand apart in the source and are kept apart here.

Legend:
S. mutans [1] = experiment: Bacterial susceptibility assay (microdilution, planktonic); type: cell-based, Streptococcus mutans UA159; conditions: Streptococcus mutans
Description: (§1) Streptococcus mutans UA159, Streptococcus gordonii DL1 and Streptococcus sanguinis ATCC10556 were obtained from the State Key Laboratory of Oral Diseases (Sichuan University, Chengdu, China). All strains were routinely cultured in brain heart infusion broth (BHI; Difco, Sparks, MD) under anaerobic conditions (5% CO2) at 37°C. For biofilm formation, bacteria were cultured in BHI broth supplied with 1% sucrose (designated BHIS).
(§2) The minimum inhibitory concentration (MIC) and minimum bactericidal concentration (MBC) of II-6s against S. mutans, S. gordonii, and S. sanguinis were measured by a microdilution method in BHI as described previously. The bacterial inoculum for the experiment was adjusted to 1 × 10^7 colony-forming units (CFU)/ml for S. mutans, S. gordonii, and S. sanguinis based on the optical density at 600 nm (OD600) versus a CFU/ml graph of each bacterium. Bacterial suspension was added to 96-well microtiter plates which were supplemented with serially diluted concentrations of II-6s ranging from 0.98 to 500 μg/ml. Each plate also included CHX ranging from 0.98 to 500 μg/ml as a positive control, test bacteria and BHI broth as a negative control, BHI broth containing equivalent DMSO (0.5% to 0.001%, ν/ν) as a solvent control and a blank control. […] The lowest concentration of the test solutions that allowed no visible growth on a BHI agar plate was taken as MBC. The experiment was performed in triplicates and repeated at least three times.

S. gordonii biofilm = experiment: Biofilm susceptibility assay (crystal violet); type: cell-based, Streptococcus gordonii DL1; conditions: 24 h; for MBIC: S. gordonii biofilm formation, at least 90% inhibition; for MBRC: S. gordonii one-day biofilm, at least 90% reduction
Description: (§3) Streptococcus mutans UA159, Streptococcus gordonii DL1 and Streptococcus sanguinis ATCC10556 were obtained from the State Key Laboratory of Oral Diseases (Sichuan University, Chengdu, China). All strains were routinely cultured in brain heart infusion broth (BHI; Difco, Sparks, MD) under anaerobic conditions (5% CO2) at 37°C. For biofilm formation, bacteria were cultured in BHI broth supplied with 1% sucrose (designated BHIS). The effect of II-6s on S. mutans, S. gordonii, and S. sanguinis biofilm was examined by the microdilution method described previously. S. mutans, S. gordonii, and S. sanguinis (1 × 10^7 CFU/ml) respectively, were cultured in BHIS broth and II-6s (0.98 to 500 μg/ml) in 96-well microtiter plates for 24 h. A parallel study was also performed with BHIS as a negative control. After incubation, the culture supernatant and agent were removed, and each well was gently washed three times with phosphate-buffered saline (PBS), then fixed the adherent biofilm was fixed with methanol for 15 min, and stained with 0.1% (wt/vol) crystal violet (Sigma) for 5 min. The excess crystal violet stain in each well was rinsed away with PBS until the blank control wells were colorless. Finally, 200 μl of 95% ethanol was added to each well to dissolve the crystal violet attached to the biofilm. The plate was shaken at room temperature for 30 min, and the absorbance at 595 nm was recorded. To examine the effects of II-6s on mature biofilm, bacterial suspensions were inoculated into a 96-well microtiter plate containing BHIS and incubated at 37°C for 24 h. After biofilm developed, the supernatant from each well was decanted and planktonic cells were removed by washing with sterile PBS. Fresh BHI broth containing II-6s (0.98 to 500 μg/ml) was added to the one-day biofilm, and the plate was further incubated for 24 h. The control wells contained BHIS broth without II-6s. Similarly, the biofilm was fixed, stained, washed, and quantified as described above. […] The experiment was performed in triplicates and repeated at least three times.

S. mutans [2] = experiment: Bacterial drug resistance assay (MIC after repeated passages); type: cell-based, Streptococcus mutans UA159; conditions: for change of MIC / induction of drug resistance after repeated exposure: 15 passages
Description: To examine whether S. mutans could develop drug resistance against II-6s, MIC measurements after repeated successive passages were performed to analyze the antimicrobial resistance, following a previous method. The MIC values of II-6s against S. mutans were tested as described above. After the initial MIC was determined, 20 µl of bacterial suspension in a well showing 1/2 MIC was mixed with 1,980 µl of BHI medium to eliminate the influence of residual drug. A volume of 50 µl of the resultant bacterial suspension was then inoculated onto a BHI agar plate followed by incubation at 37°C for 48 h. The colonies grown on the agar plate were again suspended in BHI broth. The overnight bacterial suspensions were diluted to a concentration of 1 × 10^7 CFU/ml for the next MIC test. The same procedure was repeatedly performed for 15 passages. An increase of four-fold or higher in MIC over the initial MIC was considered to be the standard for inducing resistance to an antibacterial agent. The assay was done in triplicates and repeated three times.

S. gordonii = experiment: Bacterial susceptibility assay (microdilution, planktonic); type: cell-based, Streptococcus gordonii DL1; conditions: Streptococcus gordonii
Description: as §1, §2

S. sanguinis biofilm = experiment: Biofilm susceptibility assay (crystal violet); type: cell-based, Streptococcus sanguinis ATCC10556; conditions: 24 h; for MBIC: S. sanguinis biofilm formation, at least 90% inhibition; for MBRC: S. sanguinis one-day biofilm, at least 90% reduction
Description: as §3

S. sanguinis = experiment: Bacterial susceptibility assay (microdilution, planktonic); type: cell-based, Streptococcus sanguinis ATCC10556; conditions: Streptococcus sanguinis, BHI medium
Description: as §1, §2

S. mutans biofilm = experiment: Biofilm susceptibility assay (crystal violet); type: cell-based, Streptococcus mutans UA159; conditions: 24 h; for MBIC: S. mutans biofilm formation, at least 90% inhibition; for MBRC: S. mutans one-day biofilm, at least 90% reduction
Description: as §3

[3] = S. mutans, planktonic, BHI medium
[4] = S. gordonii, planktonic, BHI medium

Structure (SMILES) | MBC (S. mutans [1]; [3]) [µg/mL] | MIC (S. mutans [1]; S. mutans, planktonic, BHI medium, read-out: MIC) [µg/mL] | MBIC (S. gordonii biofilm) [µg/mL] | MBRC (S. gordonii biofilm) [µg/mL] | change of MIC / induction of drug resistance after repeated exposure (S. mutans [2]) | MBC (S. gordonii; [4]) [µg/mL] | MIC (S. gordonii; S. gordonii, planktonic, BHI medium, read-out: MIC) [µg/mL] | MBIC (S. sanguinis biofilm) [µg/mL] | MBRC (S. sanguinis biofilm) [µg/mL] | MBC (S. sanguinis) [µg/mL] | MIC (S. sanguinis) [µg/mL] | MBIC (S. mutans biofilm) [µg/mL] | MBRC (S. mutans biofilm) [µg/mL] | MIC (S. mutans [1]) [µg/mL] | MIC (S. mutans [2]; Streptococcus mutans, read-out: MIC against S. mutans during passaging) [µg/mL] | MIC (S. gordonii) [µg/mL]
[H]/N=C(\N/C(=N/[H])NCCCCCCNC(=N)NC(=N)Nc1ccc(Cl)cc1)Nc1ccc(Cl)cc1 [CHX, Chlorhexidine digluconate, reference compound] | 7.81 | 1.95 | 3.91 | 15.63 | increased by four times at the 15th passage | 7.81 | 3.91 | 1.95 | 3.91 | 3.91 | 0.49 | 0.98 | 62.50 | – | – | –
CC(C)(Cc1ccc2ccccc2c1)NC[C@H](O)CNc1cc(C(F)(F)F)cc(C(F)(F)F)c1 [II-6s, (S)-1-((3,5-bis(trifluoromethyl)phenyl)amino)-3-((2-methyl-1-(naphthalen-2-yl)propan-2-yl)amino)propan-2-ol] | 15.6 (≈ 32.3 µM) | – | 3.91 | 3.91 | did not induce drug resistance | 15.6 (≈ 32.3 µM) | – | 3.91 | 3.91 | 7.81 (≈ 16.1 µM) | 1.95 (≈ 4.02 µM) | 3.91 | 62.50 | 3.91 (≈ 8.07 µM) | 3.91 (≈ 8.07 µM) | 3.91 (≈ 8.07 µM)
